Assay results published in patent US20250066468A1, “LIPOSOME ENCAPSULATED AFFINITY DRUG” (L.E.A.F. HOLDINGS GROUP LLC, priority 2014, published 2025).

Assays:
[1] = test system: phosphorylated p38 in SL0003 lung cancer cells; assay: p38 phosphorylation (PhosFlow); assay type: cell-based; conditions: 30 minutes, pemetrexed at 10 μM and 50 μM
Method: A second measure of sample liposome entering the cell is intracellular activation pathways. Cells respond to ligands binding to their receptors by activating kinases, in this case p38. The activated kinases can be measured by flow cytometry. The cells are incubated with sample liposome for 30 minutes and then lysed with a mild detergent. The activated p38 kinase is detected with an antibody by flow cytometry. A shift under the red line gate indicates a higher level of phosphorylated p38 (See FIG. 18A and 18BG). Cancer cells may have a higher basal level of activated kinases.
In addition, for FIG. 17, measuring p38 phosphorylation (PhosFlow) SL0003, normal colon cells, and normal breast cells were seeded at 10,000 cells/well. Cells were treated with: Fresh Pemetrexed ([…]), LEAF-001 (Liposome 070715 MPF; 5traut/50 Mab, 15traut/50Mab, 45traut/50Mab) (13.33× dilution), anti-folate receptor alpha (MABFRA H/L 1.01 mg/ml) (13.33× dilution) to determine the effect of the antibody in sample liposome, or no treatment. The cells were gently mixed and quickly placed in incubator. At each time point (30 minutes-4 hours), the plates were removed from the incubator and immediately fixed with formaldehyde for a final concentration of 2%. The plates were incubated for 5 minutes at room temperature. 25 μl of media was removed. […] The cells were read on the flow cytometer (in FL2).

[2] = test system: SL0003 (lung cancer) cells; assay: Cell cycle by propidium iodide DNA staining, flow cytometry; assay type: cell-based; conditions: titrated concentrations, day 5
Method: SL0003 (lung cancer) cells were prepared as described in the Example describing MTS assays (Example 5).
For this assay, the cells were cultured for 4 or 5 days (shown is day 5.). More specifically, […] cells (lung adenocarcinoma) were seeded in 96 well plates and treated the next day with titrated concentrations of LEAF-001 or pemetrexed. At day 5, cells were lysed with FACS buffer, 0.2% triton X-100, 0.3% formaldehyde. The DNA was stained with Propidium Iodine for 30 minutes […] to evaluate cell cycle
The cells were washed and evaluated by flow cytometry (FL2). FIG. 22A depicts a schematic showing the cell cycle. By inhibiting the formation of precursor purine and pyrimidine nucleotides, pemetrexed prevents the formation of DNA and RNA, which are required for the growth and survival of both normal cells and cancer cells.

CD34+ stem cells = assay: Neutrophil differentiation of CD34+ stem cells, flow cytometry; assay type: cell-based, human; conditions: pemetrexed 2-50 μM; day 2; n=4 donors
Method: Experiments were performed as follows: CD34+ stem cells were obtained from ATCC. CD34+ cells were thawed at 37° C. for 1 minute. While on ice, the cells were transferred to cold stem cell medium (“StemSpan SFEM”-Stem Cell Tech. cat. #9650), 10% heat […] fetal bovine serum (HI FBS.) Each vial contained approximated 5×10^5 cell/ml. The cells were placed in 96 well tissue culture plates 35,000 cell/well. The neutrophils GROWTH media contained 100 ng/ml of stem cell factor human (SCF-Sigma H8416, lot #MKB[…]), 20 ng/ml of granulocyte colony-stimulation factor, human (G-CSF-Sigma H5541, lot #SLB[…]), 10 ng/ml of IL3 recombinant human (Sigma SRP3090, lot #1008AFC13) in […] media as above. […] The cells shown in the circle on the plots are maturing neutrophils expressing Mac-1 and CD34.

[3] = neutral pH; cited from earlier work

neutrophil differentiation (CD34+ stem cells): neutrophil differentiation is inhibited
SMILES: Nc1nc2[nH]cc(CCc3ccc(C(=O)N[C@@H](CCC(=O)O)C(=O)O)cc3)c2c(=O)[nH]1 [pemetrexed, Pemetrexed disodium heptahydrate]
effect on p38 activation [1]: reduces p38 activation
cell cycle effect (accumulation in S phase) [2]: induces cells to accumulate in S phase
solubility [3]: 100 mg/mL
